From the METLIN SMRT retention time set (Domingo-Almenara et al. 2019)

Experiment: gradient 5% acetonitrile 3 min, to 50% in 2 min, to 85% in 15 min, held 3 min, 100 µL/min
Conditions: column: Zorbax Extend-C18 2.1 x 50 mm; eluents: water / acetonitrile, 0.1% formic acid
Summary of the method: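 Pure standards were run in mixtures of ~100 molecules by HPLC coupled to a quadrupole time-of-flight mass spectrometer. The column was a Zorbax Extend-C18 (2.1 × 50 mm, 1.8 μm) at 100 μL/min, with water and acetonitrile each containing 0.1% formic acid, in positive and negative ionization mode. Dead and dwell volumes were 40 μL and 900 μL. Retention time was taken from computationally picked adduct peaks, each manually inspected, with data collected over 3 months.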

RP-LC retention time	SMILES
671 s	CN(C1CCc2nn(C)c(=O)n2CC1)S(=O)(=O)c1cccc2cccnc12 (configuration not stated)
833 s	CCOC(=O)C1CCN(c2nc(=O)n(CC(=O)Nc3cccc(C)c3)c3ccccc23)CC1
646 s	Cc1noc(CNC(=O)C2CCN(S(=O)(=O)c3cccs3)CC2)n1
858 s	O=C(Cn1cc(C(=O)c2ccco2)c2ccccc21)NCc1ccc2c(c1)OCCCO2
633 s	Cc1cnc(-c2cccnc2)n1C1CCN(S(=O)(=O)c2ccc3c(c2)OCCO3)C1 (configuration not stated)
563 s	O=C(NCc1ccccn1)C(=O)NCC1OCCN1S(=O)(=O)c1cccs1 (configuration not stated)
691 s	Cc1ccc(-c2cc(=O)n(CC(=O)Nc3nccs3)cn2)cc1
537 s	Cc1cc(C)c2c(N3CCCC3)nc(C(=O)NCc3cccnc3)nc2n1
693 s	Cc1onc2c(=O)n(CC(=O)N3CCN(c4ccccn4)CC3)nc(-c3ccc(Cl)cc3)c12
965 s	Cn1c(=O)c(N2CCC(NC(=O)Nc3cccc(Br)c3)CC2)nc2ccccc21
972 s	CCc1ccc(S(=O)(=O)N2CCC(n3c(-c4ccco4)nc4cccnc43)C2)cc1 (configuration not stated)
599 s	CC1=C(C(=O)Nc2ccccc2C(=O)NCCN2CCN(C)CC2)SCCO1
870 s	CC(C)NC(=O)c1ccc(OCC2CCN(C(=O)Cc3ccccc3F)CC2)cc1
583 s	CS(=O)(=O)N1CCc2cc(C(=O)N3CCC(C(N)=O)CC3)ccc21
670 s	O=C(NCCCN1CCCC1=O)c1cc2c(s1)CCN(C(=O)c1ccc(F)cc1)C2
908 s	Cc1ccc(CNC(=O)c2ccc3c(c2)N(C)C(=O)C2CCCCN32)cc1 (configuration not stated)

RP-LC retention time	SMILES
758 s	CN(Cc1ccccc1)C(=O)C1CCCN(c2ncnc3c2nc2n3CCCCC2)C1 (configuration not stated)
592 s	Cn1ncc2c3ccccc3n(CC(=O)NCCN3CCOCC3)c2c1=O
845 s	COC(=O)c1cc(S(=O)(=O)N2CCCC2C(=O)NCc2ccccc2Cl)cn1C (configuration not stated)
850 s	Cc1ncsc1C1N(C2CCN(S(=O)(=O)c3ccccc3)CC2)C(=O)C12CCCC2 (configuration not stated)
1180 s	COc1ncccc1CNC(=O)c1cc(Cl)ccc1F
685 s	CC(=O)Nc1nc(C)c(-c2ccc(Cl)c(S(=O)(=O)NCCO)c2)s1
792 s	CCc1noc(NC(C)=O)c1-c1ccc(OC)c(S(=O)(=O)Nc2ccc(F)c(F)c2)c1
697 s	CC(=O)Nc1ccc(C(=O)NCCNC(=O)CC(c2ccccc2)c2ccccc2)cc1
661 s	COC(=O)c1c(NCc2c(C)noc2C)c2ccccc2[nH]c1=O
888 s	O=C(NCCc1csc(-c2ccccc2)n1)[C@H]1CCCN1S(=O)(=O)c1cccc2nsnc12
641 s	CCOC(=O)CNC(=O)N1CCC(n2c(-c3ccc(F)cc3)nc3cccnc32)C1 (configuration not stated)
1080 s	Cc1ccc(NC(=O)Cn2nc3c(N4CCN(c5ccccc5C)CC4)nccn3c2=O)cc1
623 s	CCCN1CCN(C(=O)Cn2nc(C)c3sc(-c4ccccc4)nc3c2=O)CC1
616 s	Cc1ccsc1C(=O)NCc1ccc2c(c1)ncn2C(C)C
978 s	COC(=O)c1sccc1NC(=O)NCC(c1ccc(OC)c(OC)c1)c1c[nH]c2ccccc12 (configuration not stated)
985 s	O=C(c1ccsc1)N1CCN(S(=O)(=O)c2cc(-c3noc(C4CCC4)n3)cs2)CC1

The remaining lines, values behind:

SMILES	RP-LC retention time
Cc1ccc(-n2ncc3c(=O)n(Cc4nc(-c5ccc(OC(C)C)cc5)no4)cnc32)cc1Cl	726 s
COc1ccc(C(O)CN2CCN(c3ccccc3C)CC2)cc1 (configuration not stated)	686 s
CCc1sc(NC(=O)c2cc(OC)cc(OC)c2)nc1-c1ccccc1	1200 s
COc1ccc(C2CC(=O)N(c3ccc(C(C)C)cc3)C(=O)C2)cc1OC	987 s
O=C(Cn1c(=O)c2cccn2c2ccc(F)cc21)NCCN1CCCCCC1	623 s
CCOC(=O)c1cnc2nc(C)ccc2c1Nc1ccc(F)cc1F	716 s
O=C(Nc1ccc(Cl)cc1)c1csc(-c2ccc(N3CCCC3)nc2)n1	837 s
Cc1sc(NC(=O)CC(C)C)nc1-c1ccc2c(c1)N(C)C(=O)CO2	910 s
CCOC(=O)Cc1cc(=O)oc2cc(O)ccc12	677 s
CCN(CC)S(=O)(=O)c1cccc(-c2nnc(-c3cccc(C)c3)o2)c1	1120 s
CC1CCN(c2cc(-n3ccnc3)ncn2)CC1	651 s
Cc1nc2c(sc3nc(-c4ccccc4)ccc32)c(=O)n1CC(=O)Nc1cccc(Cl)c1	1120 s
CCc1ccc(CNC(=O)Cc2c(C(=O)O)c(C)cn2CC)cc1	842 s
COc1ccc(Cl)cc1NC(=O)CSc1cc(N2CCN(c3ccccc3OC)CC2)ncn1	1240 s
Cn1nc(-c2ccccc2)cc1C(=O)NCCn1nc(-c2ccc(Cl)cc2)ccc1=O	836 s
Cc1ccc(OCC(=O)NCC2(C)CCOCC2)cc1	784 s
CC(C)NC(=O)C1CC(=O)N(CCc2c[nH]c3ccc(Cl)cc23)C1 (configuration not stated)	731 s
Cc1noc(C2(NC(=O)c3ccc4ccccc4n3)CCCCC2)n1	1060 s
CC(C)c1cc(C(=O)Nc2ccc(F)cc2)nn1C1CCS(=O)(=O)C1 (configuration not stated)	860 s
Cc1ccc(-c2csc(Cc3nc(-c4ccc(F)cc4)no3)n2)c(C)c1	1070 s
Cc1cc(Cl)ccc1NC(=O)C1CCN(c2c(C(=O)N3CCOCC3)cnc3snc(C)c23)CC1	847 s
O=C(NC1CCCCCC1)c1ccc(CN2C(=O)C3CCCN3C(=O)c3ccccc32)cc1 (configuration not stated)	818 s
COc1ccc(-c2nc3n(n2)C2(CCCCC2)[C@@H]2CCCC[C@@H]2N3C(=O)C2CC2)cc1	682 s
Cc1ccc(C(=O)Nc2nc(-c3ccc4c(c3)NC(=O)C(C)O4)cs2)cc1 (configuration not stated)	918 s
Cc1ccc(NC(=O)CSc2ccc(N3CCCC(C(=O)NC4CC4)C3)nn2)cc1C (configuration not stated)	628 s
Cc1nn(C(C)C(=O)Nc2cccc(Cl)c2)c(=O)c2c(-n3cccc3)n(-c3ccccc3)nc12 (configuration not stated)	1200 s
O=C(COc1ccc(Br)cc1)Nc1cncc(-c2nc3ccccc3o2)c1	1040 s
O=C(Nc1ccc2c(c1)CN(C(=O)c1cc(C3CC3)[nH]n1)CCO2)C1CC1	696 s

SMILES	RP-LC retention time
Cc1sc2ccn(CC(C)C)c(=O)c2c1C(=O)NCCN1CCCCCC1	684 s
CCCC(N[C@@H](C)C(=O)N1[C@H](C(=O)O)C[C@@H]2CCCC[C@@H]21)C(=O)OCC (some centres not stated)	703 s
O=c1n(Cc2cc(F)cc(F)c2)nc2c(S(=O)(=O)N3CCCCC3)cccn12	903 s
COC[C@H]1NC(=O)CC[C@H]1C(=O)Nc1ccc2c(c1)OCCO2	632 s
O=C(COc1ncccn1)N1CCN(c2ncccn2)CC1	579 s
COc1ccc(NC(=O)CSc2cc(N3CCN(c4ccc(OC)cc4)CC3)ncn2)cc1	859 s
CC(=O)c1ccc(NC(=O)Cn2ccc3ccc(-c4nnc(C)o4)cc32)cc1	743 s
O=C(NCc1nc(-c2ccc(Oc3ccc(Cl)cc3)cc2)no1)c1ccco1	987 s
Cc1cccc(C)c1NC(=O)N1CCC(OC2CCN(Cc3ccccc3)CC2)CC1	661 s
CC(=O)C1CC[C@H]2[C@@H]3CC[C@@H]4CC(=O)CC[C@]4(C)[C@H]3CC[C@]12C (some centres not stated)	1050 s
COCC(=O)N1CCC2(CC1)NC(=O)c1ccccc1O2	610 s
NC(=O)[C@H](Cc1ccccc1)NC(=O)[C@H](Cc1c[nH]c2ccccc12)NC(=O)[C@@H]1CCCN1C(=O)[C@@H](N)Cc1ccc(O)cc1	680 s
CCc1noc(NC(C)=O)c1-c1ccc(OC)c(S(=O)(=O)NC(C)C)c1	695 s
Cc1cc(N2C=C(C#N)S(=O)(=O)c3ccc(F)cc32)ccc1Br	979 s
CCC(=O)Nc1ccc(-n2cnc(C(=O)N3CCN(c4ccc(C)cc4C)CC3)c2)nc1	865 s
O=C(Nc1nc(-c2cc([N+](=O)[O-])cs2)cs1)C1=COCCO1	829 s
CNC(=O)c1csc(NC(=O)c2cc(Cl)ccc2Cl)n1	685 s
CN(C)c1ccc(CCCNS(=O)(=O)c2ccc(Cl)s2)cc1	655 s
c1cn2cnnc2cc1-c1noc(-c2ccc3c(c2)OCO3)n1	792 s
Cc1cc(C(=O)Nc2nc(-c3ccc(C)c(C)c3)c(C)s2)no1	1120 s
Cc1c(CCC(=O)N[C@H](CCS(C)=O)C(=O)O)c(=O)oc2cc(O)ccc12 (some centres not stated)	575 s
Cc1[nH]c(=O)[nH]c(=O)c1S(=O)(=O)NC1CC2CCC1C2 (configuration not stated)	658 s
CN1C(=O)c2cccn2CC1C(=O)NCC1CCCCC1 (configuration not stated)	727 s
CCC(C)NC(=O)c1ccc(Cn2nc(C)c(S(=O)(=O)N3CCCCC3)c2C)cc1 (configuration not stated)	874 s
Cc1ccc(Cn2nc3c(S(=O)(=O)N4CCN(c5ccc(F)cc5)CC4)cccn3c2=O)c(C)c1	1080 s
Cc1nc2cc(-c3noc(-c4ccc(Cl)cc4)n3)ccc2n(C)c1=O	872 s
O=C(Cc1ccccc1Cl)Nc1ccc(-c2nc(-c3ccccc3)co2)cc1	1150 s
